Data reported in paper PMC7150977, “Regional Intestinal Drug Permeability and Effects of Permeation Enhancers in Rat” (Pharmaceutics, 2020).
Read-outs that look alike come from different tables or passages of the source.

How the values were obtained:
[1] = tested on: colon; details: control solutions, mean ±SD, n = 38
Protocol: A linear regression analysis of the plasma samples was made to obtain a corresponding plasma value for each perfusate sample. The blood-to-lumen CLCr-EDTA was calculated using Equation (1) [16]. (1) CLCr−EDTA=Cperfusate × Qin/Cplasma × tissue weight ×100 where Cperfusate and Cplasma is the activity in the perfusate and plasma (cpm/mL), and Qin is the flow rate (mL/min). CLCr-EDTA was determined during the last 45 min for the control solution and during the last 60 min for the test solutions, of which the first 15 min of each period were for equilibration.

[2] = tested on: jejunum; experiment: Rat single-pass intestinal perfusion (SPIP), jejunal lumen-to-blood Peff from plasma appearance; format: in vivo; details: 100 µM, mean ±SD, n = 6
[3] = tested on: jejunum and colon; experiment: Regional comparison (jejunum vs colon, pH 6.5 vs 7.4) of Peff in rat SPIP; format: in vivo; details: plasma appearance
Protocol: The ratio was compared using the paired student’s t-test with the Benjamini–Hochberg multiple t-test correction. Multiple comparisons between groups were performed using a two-way ANOVA with a post-hoc Holm–Sidak multiple comparison test. Log transformation of values was performed when the original measured data were heteroscedastic and not normally distributed; this was investigated using the Bartlett test. Differences were considered to be statistically significant for p-values < than 0.05.

[4] = tested on: jejunum; set-up: method as in PMID 31201856; details: rat jejunum SPIP, cited from earlier work
[5] = set-up: method as in patent wo2012080471, 6; details: dog, oral with permeation enhancer; ref patent wo2012080471, 6; cited from earlier work
[6] = tested on: intestine; details: pH 6.5, human SPIP model; cited from earlier work
[7] = tested on: intestine; details: pH 6.5, rat SPIP model; cited from earlier work
[8] = First-pass extraction (Ffirstpass) in rat intestine and liver; format: in vivo; details: based on literature data, iv plasma CL and liver blood flow 47 mL/min/kg
[9] = tested on: jejunum and colon; details: human study; cited from earlier work
[10] = tested on: colon; details: male, Han Wistar, rat, in vivo, 60 min, 100 µM
[11] = set-up: method as in PMID 9836611; details: n-octanol-water; cited from earlier work
[12] = Jejunum pH 6.5, control solution
[13] = Jejunum pH 7.4, control solution

## O=C([O-])CN(CCN(CC(=O)[O-])CC(=O)[O-])CC(=O)[O-].[51Cr+3] [Cr-EDTA, ^51chromium-labeled ethylenediaminetetraacetate]
[1]
  colonic CLCr-EDTA (blood-to-lumen clearance): 0.038 ± 0.050 mL/min/100 g

## C[C@H](N[C@@H](CCc1ccccc1)C(=O)O)C(=O)N1CCC[C@H]1C(=O)O [Enalaprilat, enalaprilat]
[2]; [12]
  Plasma Appearance Peff: 0.005 ± 0.004 ×10^–4 cm/s
[2]; [13]
  Plasma Appearance Peff: 0.004 ± 0.001 ×10^–4 cm/s
[3]
  difference in jejunal and colonic basal Peff: no differences
[4]; same rat
  permeability from luminal disappearance compared to plasma appearance (times higher): > 10 times

## semaglutide
[5]
  bioavailability: 0.29 % of the oral dose

## CCCCCCCCCC(=O)[O-].[Na+] [caprate, sodium caprate]
[6]
  permeation enhancing effect: no permeation enhancing effect
[7]
  permeation enhancing effect: no permeation enhancing effect

## CC(C)NCC(O)COc1ccc(CC(N)=O)cc1 (centres unmarked) [Atenolol, atenolol]
[8]
  Ffirstpass (first-pass extraction compensation value): 1.0
[3]
  difference in jejunal and colonic basal Peff: no differences

## CC(C(=O)O)c1cccc(C(=O)c2ccccc2)c1 (centres unmarked) [Ketoprofen, ketoprofen]
[9]
  difference between permeability from luminal disappearance and plasma appearance: no differences
[4]
  difference between permeability from luminal disappearance and plasma appearance: no differences

## COCCc1ccc(OCC(O)CNC(C)C)cc1 (centres unmarked) [Metoprolol, metoprolol]
[8]
  Ffirstpass (first-pass extraction compensation value): 0.22
[2]; [12]
  Plasma Appearance Peff: 0.28 ± 0.24 ×10^–4 cm/s
[2]; [13]
  Plasma Appearance Peff: 0.17 ± 0.095 ×10^–4 cm/s
[9]
  difference between permeability from luminal disappearance and plasma appearance: no differences
[10]; pH 6.5
  Plasma Appearance Peff: 0.41 ± 0.19 ×10^–4 cm/s
[10]; pH 7.4
  Plasma Appearance Peff: 0.38 ± 0.15 ×10^–4 cm/s
[4]
  difference between permeability from luminal disappearance and plasma appearance: no differences
[11]
  Log P: 2.07
